Assay results reported in ChEMBL document CHEMBL2429768, “Eco-friendly synthesis and antimicrobial activities of substituted-5-(1H-indol-3-yl)methylene)-2,2-dimethyl-1,3-dioxane-4,6-dione derivatives” (2013).
Values after ≈ are worked out from the molar mass of the structure shown.

Columns and labels:
Format in all cases: functional
[1] = tested on: Aspergillus niger; experiment: Antifungal activity against Aspergillus niger at 50 ug/ml after 72 hrs by agar well diffusion method; details: read-out: DIZ
[2] = tested on: Fusarium oxysporum; experiment: Antifungal activity against Fusarium oxysporum at 500 ug/ml after 72 hrs by agar well diffusion method; details: read-out: DIZ
[3] = tested on: Fusarium oxysporum; experiment: Antifungal activity against Fusarium oxysporum at 300 ug/ml after 72 hrs by agar well diffusion method; details: read-out: DIZ
[4] = tested on: Fusarium oxysporum; experiment: Antifungal activity against Fusarium oxysporum at 200 ug/ml after 72 hrs by agar well diffusion method; details: read-out: DIZ
[5] = tested on: Fusarium oxysporum; experiment: Antifungal activity against Fusarium oxysporum at 100 ug/ml after 72 hrs by agar well diffusion method; details: read-out: DIZ
[6] = tested on: Fusarium oxysporum; experiment: Antifungal activity against Fusarium oxysporum at 50 ug/ml after 72 hrs by agar well diffusion method; details: read-out: DIZ
[7] = tested on: Rhizoctonia solani; experiment: Antifungal activity against Rhizoctonia solani at 500 ug/ml after 72 hrs by agar well diffusion method; details: read-out: DIZ
[8] = tested on: Rhizoctonia solani; experiment: Antifungal activity against Rhizoctonia solani at 300 ug/ml after 72 hrs by agar well diffusion method; details: read-out: DIZ
[9] = tested on: Rhizoctonia solani; experiment: Antifungal activity against Rhizoctonia solani at 200 ug/ml after 72 hrs by agar well diffusion method; details: read-out: DIZ
[10] = tested on: Rhizoctonia solani; experiment: Antifungal activity against Rhizoctonia solani at 100 ug/ml after 72 hrs by agar well diffusion method; details: read-out: DIZ
[11] = tested on: Rhizoctonia solani; experiment: Antifungal activity against Rhizoctonia solani at 50 ug/ml after 72 hrs by agar well diffusion method; details: read-out: DIZ
[12] = tested on: Bacillus subtilis; experiment: Antibacterial activity against Bacillus subtilis at 500 ug/ml after 24 hrs by agar well diffusion method; details: read-out: DIZ
[13] = tested on: Bacillus subtilis; experiment: Antibacterial activity against Bacillus subtilis at 300 ug/ml after 24 hrs by agar well diffusion method; details: read-out: DIZ
[14] = tested on: Bacillus subtilis; experiment: Antibacterial activity against Bacillus subtilis at 200 ug/ml after 24 hrs by agar well diffusion method; details: read-out: DIZ
[15] = tested on: Bacillus subtilis; experiment: Antibacterial activity against Bacillus subtilis at 100 ug/ml after 24 hrs by agar well diffusion method; details: read-out: DIZ
[16] = tested on: Bacillus subtilis; experiment: Antibacterial activity against Bacillus subtilis at 50 ug/ml after 24 hrs by agar well diffusion method; details: read-out: DIZ
[17] = tested on: Staphylococcus aureus; experiment: Antibacterial activity against Staphylococcus aureus ATCC 6538 at 500 ug/ml after 24 hrs by agar well diffusion method; details: ATCC 6538, 24 h, read-out: DIZ
[18] = tested on: Staphylococcus aureus; experiment: Antibacterial activity against Staphylococcus aureus ATCC 6538 at 300 ug/ml after 24 hrs by agar well diffusion method; details: ATCC 6538, 24 h, read-out: DIZ
[19] = tested on: Staphylococcus aureus; experiment: Antibacterial activity against Staphylococcus aureus ATCC 6538 at 200 ug/ml after 24 hrs by agar well diffusion method; details: ATCC 6538, 24 h, read-out: DIZ
[20] = tested on: Staphylococcus aureus; experiment: Antibacterial activity against Staphylococcus aureus ATCC 6538 at 100 ug/ml after 24 hrs by agar well diffusion method; details: ATCC 6538, 24 h, read-out: DIZ
[21] = tested on: Escherichia coli; experiment: Antibacterial activity against Escherichia coli ATCC 8739 at 300 ug/ml after 24 hrs by agar well diffusion method; details: ATCC 8739, 24 h, read-out: DIZ
[22] = tested on: Escherichia coli; experiment: Antibacterial activity against Escherichia coli ATCC 8739 at 200 ug/ml after 24 hrs by agar well diffusion method; details: ATCC 8739, 24 h, read-out: DIZ
[23] = tested on: Escherichia coli; experiment: Antibacterial activity against Escherichia coli ATCC 8739 at 100 ug/ml after 24 hrs by agar well diffusion method; details: ATCC 8739, 24 h, read-out: DIZ
[24] = tested on: Escherichia coli; experiment: Antibacterial activity against Escherichia coli ATCC 8739 at 50 ug/ml after 24 hrs by agar well diffusion method; details: ATCC 8739, 24 h, read-out: DIZ
[25] = tested on: Klebsiella pneumoniae; experiment: Antibacterial activity against Klebsiella pneumoniae at 500 ug/ml after 24 hrs by agar well diffusion method; details: read-out: DIZ
[26] = tested on: Klebsiella pneumoniae; experiment: Antibacterial activity against Klebsiella pneumoniae at 300 ug/ml after 24 hrs by agar well diffusion method; details: read-out: DIZ
[27] = tested on: Klebsiella pneumoniae; experiment: Antibacterial activity against Klebsiella pneumoniae at 200 ug/ml after 24 hrs by agar well diffusion method; details: read-out: DIZ
[28] = tested on: Klebsiella pneumoniae; experiment: Antibacterial activity against Klebsiella pneumoniae at 50 ug/ml after 24 hrs by agar well diffusion method; details: read-out: DIZ
[29] = tested on: Escherichia coli; experiment: Antibacterial activity against Escherichia coli ATCC 8739 at 500 ug/ml after 24 hrs by agar well diffusion method; details: ATCC 8739, 24 h, read-out: DIZ
[30] = tested on: Klebsiella pneumoniae; experiment: Antibacterial activity against Klebsiella pneumoniae at 100 ug/ml after 24 hrs by agar well diffusion method; details: read-out: DIZ
[31] = tested on: Staphylococcus aureus; experiment: Antibacterial activity against Staphylococcus aureus ATCC 6538 at 50 ug/ml after 24 hrs by agar well diffusion method; details: ATCC 6538, 24 h, read-out: DIZ
[32] = tested on: Aspergillus flavus; experiment: Antifungal activity against Aspergillus flavus at 50 ug/ml after 72 hrs by agar well diffusion method; details: read-out: DIZ
[33] = tested on: Aspergillus flavus; experiment: Antifungal activity against Aspergillus flavus at 100 ug/ml after 72 hrs by agar well diffusion method; details: read-out: DIZ
[34] = tested on: Aspergillus flavus; experiment: Antifungal activity against Aspergillus flavus after 72 hrs by agar well diffusion method
[35] = tested on: Aspergillus niger; experiment: Antifungal activity against Aspergillus niger after 72 hrs by agar well diffusion method
[36] = tested on: Fusarium oxysporum; experiment: Antifungal activity against Fusarium oxysporum after 72 hrs by agar well diffusion method
[37] = tested on: Rhizoctonia solani; experiment: Antifungal activity against Rhizoctonia solani after 72 hrs by agar well diffusion method
[38] = tested on: Bacillus subtilis; experiment: Antibacterial activity against Bacillus subtilis after 24 hrs by agar well diffusion method
[39] = tested on: Staphylococcus aureus; experiment: Antibacterial activity against Staphylococcus aureus ATCC 6538 after 24 hrs by agar well diffusion method; details: ATCC 6538, 24 h
[40] = tested on: Escherichia coli; experiment: Antibacterial activity against Escherichia coli ATCC 8739 after 24 hrs by agar well diffusion method; details: ATCC 8739, 24 h
[41] = tested on: Klebsiella pneumoniae; experiment: Antibacterial activity against Klebsiella pneumoniae after 24 hrs by agar well diffusion method
[42] = tested on: Aspergillus flavus; experiment: Antifungal activity against Aspergillus flavus at 500 ug/ml after 72 hrs by agar well diffusion method; details: read-out: DIZ
[43] = tested on: Aspergillus flavus; experiment: Antifungal activity against Aspergillus flavus at 300 ug/ml after 72 hrs by agar well diffusion method; details: read-out: DIZ
[44] = tested on: Aspergillus flavus; experiment: Antifungal activity against Aspergillus flavus at 200 ug/ml after 72 hrs by agar well diffusion method; details: read-out: DIZ
[45] = tested on: Aspergillus niger; experiment: Antifungal activity against Aspergillus niger at 500 ug/ml after 72 hrs by agar well diffusion method; details: read-out: DIZ
[46] = tested on: Aspergillus niger; experiment: Antifungal activity against Aspergillus niger at 300 ug/ml after 72 hrs by agar well diffusion method; details: read-out: DIZ
[47] = tested on: Aspergillus niger; experiment: Antifungal activity against Aspergillus niger at 200 ug/ml after 72 hrs by agar well diffusion method; details: read-out: DIZ
[48] = tested on: Aspergillus niger; experiment: Antifungal activity against Aspergillus niger at 100 ug/ml after 72 hrs by agar well diffusion method; details: read-out: DIZ

COc1ccc2c(c1)c(C=C1C(=O)OC(C)(C)OC1=O)cn2C was tested, and the zone of inhibition at 50 µg/mL [1] was 6 mm, the zone of inhibition at 500 µg/mL [2] was 29 mm and the zone of inhibition at 300 µg/mL [3] was 21 mm. The zone of inhibition at 200 µg/mL [4] was 16 mm, the zone of inhibition at 100 µg/mL [5] was 12 mm and the zone of inhibition at 50 µg/mL [6] was 7 mm. For the same molecule, the zone of inhibition at 500 µg/mL [7] was 29 mm, the zone of inhibition at 300 µg/mL [8] was 21 mm and the zone of inhibition at 200 µg/mL [9] was 16 mm. For the same molecule, the zone of inhibition at 100 µg/mL [10] was 12 mm, the zone of inhibition at 50 µg/mL [11] was 7 mm and the zone of inhibition at 500 µg/mL [12] was 22 mm. For the same molecule, the zone of inhibition at 300 µg/mL [13] was 14 mm, the zone of inhibition at 200 µg/mL [14] was 11 mm and the zone of inhibition at 100 µg/mL [15] was 9 mm. It also gave a zone of inhibition at 50 µg/mL [16] of 4 mm, a zone of inhibition at 500 µg/mL [17] of 26 mm and a zone of inhibition at 300 µg/mL [18] of 16 mm. It also gave a zone of inhibition at 200 µg/mL [19] of 13 mm, a zone of inhibition at 100 µg/mL [20] of 10 mm and a zone of inhibition at 300 µg/mL [21] of 20 mm. For the same molecule, the zone of inhibition at 200 µg/mL [22] was 15 mm, the zone of inhibition at 100 µg/mL [23] was 13 mm and the zone of inhibition at 50 µg/mL [24] was 8 mm. For the same molecule, the zone of inhibition at 500 µg/mL [25] was 32 mm, the zone of inhibition at 300 µg/mL [26] was 23 mm and the zone of inhibition at 200 µg/mL [27] was 18 mm. For the same molecule, the zone of inhibition at 50 µg/mL [28] was 9 mm, the zone of inhibition at 500 µg/mL [29] was 31 mm and the zone of inhibition at 100 µg/mL [30] was 14 mm. It also gave a zone of inhibition at 50 µg/mL [31] of 6 mm, a zone of inhibition at 50 µg/mL [32] of 4 mm and a zone of inhibition at 100 µg/mL [33] of 9 mm. The MIC [34] was 40 µg/mL (≈ 127 µM), the MIC [35] was 40 µg/mL (≈ 127 µM) and the MIC [36] was 35 µg/mL (≈ 111 µM). For the same molecule, the MIC [37] was 35 µg/mL (≈ 111 µM), the MIC [38] was 30 µg/mL (≈ 95.1 µM) and the MIC [39] was 25 µg/mL (≈ 79.3 µM). The MIC [40] was 15 µg/mL (≈ 47.6 µM), the MIC [41] was 15 µg/mL (≈ 47.6 µM) and the zone of inhibition at 500 µg/mL [42] was 23 mm. It also gave a zone of inhibition at 300 µg/mL [43] of 15 mm, a zone of inhibition at 200 µg/mL [44] of 12 mm and a zone of inhibition at 500 µg/mL [45] of 25 mm. For the same molecule, the zone of inhibition at 300 µg/mL [46] was 18 mm, the zone of inhibition at 200 µg/mL [47] was 14 mm and the zone of inhibition at 100 µg/mL [48] was 10 mm.
